Source: patent publication US20060148744A1, “Use of cis-epoxyeicosantrienoic acids and inhibitors of soluble epoxide hydrolase to reduce damage from stroke” (priority 2004, published 2006)

Columns and labels:
[1] = rat, in vivo, po
Experimental: The sEH inhibitor, adamantyl dodecanoic acid (AUDA) was administered orally to six-week-old male stroke prone spontaneously hypertensive rats (“SPSHR”).

[2] = tested on: stroke prone spontaneously hypertensive rats; assay: Cerebral ischemia by middle cerebral artery occlusion (intralumenal suture), infarct size by TTC staining; assay type: in vivo, rat; conditions: SPSHR, six weeks oral treatment, six hours post MCA occlusion, n=6, p<0.01 vs. vehicle
Experimental: After six weeks of treatment, cerebral ischemia was induced by middle cerebral artery occlusion using the intralumenal suture occlusion technique. Rats were anesthetized with sodium pentobarbital (50 mg/kg IP) and body temperature was maintained at 37° C. using a microprocessor-controlled heating pad and a rectal temperature probe. The skin over the skull was retracted and the bone was thinned using a low speed drill. A laser Doppler flow probe (Perimed) was glued to the skull 2 mm posterior and 6 mm lateral to the bregma to allow for confirmation of middle cerebral artery (“MCA”) occlusion. The MCA was then occluded using the thread occlusion model as described by Zea Longa et al. “Reversible middle cerebral artery occlusion without craniotomy in rats”, Stroke 20:84-91 (1989). The common carotid artery was exposed by a midline incision and the pterygopalatine artery was ligated and the branches of the external carotid artery were cauterized. A 3-0 monofilament thread with a rounded tip was introduced into the external carotid artery in a retrograde fashion. […] Digital images of the brain slices were produced and the infarct volume was analyzed using a computerized image analysis system (NIH image, version 1.55). The percent of the hemisphere infarcted was measured using the Swanson equation to account for cerebral edema. […]

[3] = Systolic blood pressure in treated SPSHR; assay type: in vivo, rat; conditions: SPSHR treated with AUDA
Excerpt: This difference in infarct size occurred independently of changes in systolic blood pressure (193±2 vs. 197±6 mm Hg, AUDA vs. vehicle).

Metabolic stability = assay type: in vitro ADME; conditions: result in words
sEH = biological target: T1, sEH (Homo sapiens, UniProt P34913); assay: Inhibition of sEH; assay type: biochemical; conditions: result in words
T1 sequence (P34913 1-555): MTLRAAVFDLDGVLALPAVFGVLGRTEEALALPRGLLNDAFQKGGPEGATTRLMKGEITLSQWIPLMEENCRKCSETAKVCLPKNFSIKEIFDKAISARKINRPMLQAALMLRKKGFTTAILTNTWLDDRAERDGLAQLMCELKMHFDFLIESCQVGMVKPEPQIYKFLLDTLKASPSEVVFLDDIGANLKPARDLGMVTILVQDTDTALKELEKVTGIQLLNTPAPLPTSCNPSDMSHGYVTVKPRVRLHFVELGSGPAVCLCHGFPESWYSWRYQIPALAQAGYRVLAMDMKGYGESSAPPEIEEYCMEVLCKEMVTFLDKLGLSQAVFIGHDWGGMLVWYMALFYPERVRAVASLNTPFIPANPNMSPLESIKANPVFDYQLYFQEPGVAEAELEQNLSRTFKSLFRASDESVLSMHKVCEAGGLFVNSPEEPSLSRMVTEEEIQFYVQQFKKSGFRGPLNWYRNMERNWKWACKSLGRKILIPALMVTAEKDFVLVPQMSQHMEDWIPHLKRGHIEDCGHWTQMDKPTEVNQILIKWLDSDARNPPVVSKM
Excerpt: Any of a number of standard assays for determining epoxide hydrolase activity can be used to determine inhibition of sEH. For example, suitable assays are described in Gill, et al., Anal Biochem 131, 273-282 (1983); and Borhan, et al., Analytical Biochemistry 231, 188-200 (1995)). Suitable in vitro assays are described in Zeldin et al., J Biol. Chem. 268:6402-6407 (1993). Suitable in vivo assays are described in Zeldin et al., Arch Biochem Biophys 330:87-96 (1996). […]
The enzyme also can be detected based on the binding of specific ligands to the catalytic site which either immobilize the enzyme or label it with a probe such as dansyl, fluoracein, luciferase, green fluorescent protein or other reagent. […] The enzyme also can be detected based on the generation of fluorescent products following the hydrolysis of the epoxide. […]

Molecule | Plasma levels of AUDA at the end of the treatment period [1] [ng/mL] | urinary AUDA excretion rate [1] [ng/day] | % hemisphere infarcted [2] [% hemisphere infarcted] | systolic blood pressure [3] [mm Hg] | metabolic stability (Metabolic stability) | activity as an inhibitor of sEH (sEH)
adamantyl dodecanoic acid [AUDA] | 5.03 ± 0.32 | 111.6 ± 24.4 | 35.9±3.83 | 193±2 |  | 
CCCCCCCCCCCCNC(=O)NC12CC3CC(CC(C3)C1)C2 [ADU, N-Adamantyl-N′-dodecyl urea] |  |  |  |  | metabolically stable | particularly high activity on sEH
